Assay results published in US10160785B2, “Antimicrobial peptides and their use for the treatment of topical infections” (priority 2015, dated 2018).
≈ marks a conversion by molar mass, not a printed value.

Legend:
Format in all cases: cell-based
[1] = test system: Candida glabrata DSY 565; assay: microbe, parasite or virus in culture; conditions: Nakaseomyces glabratus, DSY565; RPMI broth microdilution, 35° C., 48 hours, visual; read-out: Antifungal activity MIC C. glabrata DSY 565
Description: (§1) All yeasts Candida albicans (Olomouc) and ATCC MYA-2876, Candida glabrata ATCC 2001 and DSY 565, Candida dubliniensis ATCC MYA-646, Candida krusei ATCC 6258 and Candida tropicalis ATCC 750 were sub-cultured from sterile vials onto Sabouraud dextrose agar, which was composed of 40 g dextrose (Penta, Czech Republic), 10 g peptone (OXOID, Great Britain) and 17 g agar (OXOID), dissolved in 1 l of distilled water, and cultivated for 24 hours at 35° C.
(§2) All strains were stored in a way that minimizes the possibility of mutation. Candida spp. were grown overnight in liquid YPD medium which is composed of 10 g yeast extract (DIFCO, USA), 20 g peptone (OXOID), and 20 g dextrose (Penta) dissolved in 1 l distilled water. Then the overnight culture was cryogenically preserved by suspending in 50% glycerol solution (1:1) in small vials and stored at −80° C.
(§3) The inoculum was prepared by picking five colonies from 24-hour-old cultures of Candida spp. The colonies were suspended in 1 ml of sterile saline solution and vortexed for 15 seconds. Optical density of the suspension was adjusted spectrophotometrically by adding sterile saline solution to produce optical density of 0.18 at 600 nm. A working suspension was made by a 1:50 dilution followed by a 1:20 dilution of the stock suspension with RPMI 1640 broth medium which was composed of L-glutamine without NaHCO3 (BioSera, France), and with 0.165 mol.l^−1 MOPS (Duchefa, Netherland)—further as RPMI broth medium.
(§4) The broth microdilution test was performed by using sterile, disposable, multi-well microdilution plates (96-well). The peptides in the concentrations 0.625-160 μmol.l^−1 were pipetted into the wells in 100 μl volumes. Each well of the plate was inoculated with 100 μl of the diluted inoculum suspension. Final yeast density in each well was 5×10^2 up to 2.5×10^3 CFU/ml. The microdilution plates were incubated without shaking at 35° C. and observed for the presence or absence of visible growth for 48 hours.
(§5) Drug-free medium without inoculation served as negative control; the growth positive control contained inoculated drug-free medium. Amphotericin B was used as control drug to ensure quality of Candida strains.
(§6) The minimal inhibition concentrations (MICs) were visually determined 48 hours after inoculation. The MIC values were defined as the lowest concentration in which no observable growth is noticeable.
(§7) All yeast isolates were obtained from the Institute of Physiology of the Academy of Sciences of the Czech Republic. Candida albicans (Olomouc) came from the Faculty of Medicine and Dentistry, Palacý University Olomouc.

[2] = test system: Candida albicans ATCC MYA-2876; assay: microbe, parasite or virus in culture; conditions: Candida albicans; RPMI broth microdilution, 35° C., 48 hours, visual; read-out: Antifungal activity MIC C. albicans ATCC MYA-2876
Description: as §1, §2, §3, §4, §5, §6, §7

[3] = test system: Candida dubliniensis ATCC MYA-646; assay: microbe, parasite or virus in culture; conditions: Candida dubliniensis; RPMI broth microdilution, 35° C., 48 hours, visual; read-out: Antifungal activity MIC C. dubliniensis ATCC MYA-646
Description: as §1, §2, §3, §4, §5, §6, §7

[4] = test system: Candida tropicalis ATCC 750; assay: microbe, parasite or virus in culture; conditions: Candida tropicalis, ATCC750; RPMI broth microdilution, 35° C., 48 hours, visual; read-out: Antifungal activity MIC C. tropicalis ATCC 750
Description: as §1, §2, §3, §4, §5, §6, §7

[5] = test system: Candida glabrata ATCC 2001; assay: microbe, parasite or virus in culture; conditions: Nakaseomyces glabratus, ATCC2001; RPMI broth microdilution, 35° C., 48 hours, visual; read-out: Antifungal activity MIC C. glabrata ATCC 2001
Description: as §1, §2, §3, §4, §5, §6, §7

[6] = test system: Candida krusei ATCC 6258; assay: microbe, parasite or virus in culture; conditions: Pichia kudriavzevii, ATCC6258; RPMI broth microdilution, 35° C., 48 hours, visual; read-out: Antifungal activity MIC C. krusei ATCC 6258
Description: as §1, §2, §3, §4, §5, §6, §7

[7] = test system: Candida albicans (Olomouc); assay: microbe, parasite or virus in culture; conditions: Candida albicans; RPMI broth microdilution, 35° C., 48 hours, visual; read-out: Antifungal activity MIC C. albicans Olomouc
Description: as §1, §2, §3, §4, §5, §6, §7

[8] = test system: Candida albicans (Olomouc) biofilm; assay: C. albicans biofilm, remaining metabolic activity (XTT)
Description: Candida albicans (Olomouc) was sub-cultured overnight in YPD medium (10 g yeast extract (DIFCO, USA), 20 g peptone (OXOID), 20 g glucose (Penta) dissolved in 1 L of distilled water) at constant shaking (100 RPM) at 37° C. Next day, the overnight culture was diluted 1:100 into fresh YPD medium and incubated at constant shaking (200 RPM) at 37° C. until the mid-exponential growth phase was reached. Then the cells were harvested and washed twice by centrifugation in physiological solution (5000 RPM; 5 min). Cells were suspended in sterile salt solution and their optical density was determined at 600 nm.
A final yeast suspension was prepared at a cell density of 1×10^6 CFU (corresponding to optical density of 0.17 at 600 nm) in RPMI 1640 medium with L-glutamine (BioSera), NaHCO3 (2 g/l; Penta) and 0.165 mol.l^−1 MOPS (Duchefa)—further as RPMI broth medium 1.
Biofilms were formed on commercially available sterile, polystyrene, flat-bottomed, 96-well microtiter plates (TPP, SW). Cell suspension (100 μl) was pipetted into selected wells of a microtiter plate and incubated without shaking for 2 hours at 37° C. Afterwards, the wells were washed twice with sterile PBS buffer (1.44 g Na2HPO4, 0.24 g KH2PO4, 0.2 g KCl and 8 g NaCl in 1 l distilled water, pH=7; Penta). Fresh RPMI broth medium 1 (100 μl) was added to each well and the plate was sealed with parafilm and incubated without shaking for 48 hours at 37° C.
Planktonic and non-adherent cells were removed by threefold washing of the biofilm with sterile PBS buffer (200 μl). A twofold serial dilution was used to reach required peptide concentration (in RPMI broth medium 1) in each well. Peptide concentrations range was between 0.39-200 μmol.l^−1. Plates were then sealed with parafilm and incubated for 20 hours at 37° C.
The metabolic activity of surviving Candida cells in the treated biofilm was determined by staining with XTT (2,3-Bis(2-methoxy-4-nitro-5-sulphophenyl)-2H-tetrazolium-5-carboxanilide). Stock solution of PMS (phenazine methosulfate; 7.5 g/l; SIGMA, Czech Republic) stored at −20° C. was diluted in PBS buffer 1:100. Diluted PMS was further mixed (2:25) with stock solution of XTT (0.5 g/l; Alchimica, Slovakia) dissolved in PBS/RPMI broth medium (1:1). Mixture (100 μl) of PMS and XTT was added into treated biofilm in the wells and incubated for 90 min at 37° C. Then the intensity of staining in each well was measured as absorbance at 540 nm on a Tecan Infinite M200 Pro reader (Tecan GmbH, Austria). Remaining metabolic activity of the cells in the biofilm was expressed for each well in percentage and calculated as follows:
[formula] where A is the absorbance of tested compound, ABL is the absorbance of negative control and AC is the absorbance of control untreated biofilm. The non-inoculated wells served as negative control. Inoculated wells not treated with compound served as positive control. Amphotericin B was used as control drug to ensure quality of Candida albicans. The values of remaining metabolic activity of treated biofilms are shown at Table 5.

[9] = peptide concentration 6.25 μmol · l^−1, 20 hours
[10] = peptide concentration 12.5 μmol · l^−1, 20 hours
[11] = peptide concentration 25 μmol · l^−1, 20 hours
[12] = peptide concentration 50 μmol · l^−1, 20 hours
[13] = peptide concentration 100 μmol · l^−1, 20 hours
[14] = peptide concentration 200 μmol · l^−1, 20 hours

Clc1ccccc1C(c1ccccc1)(c1ccccc1)n1ccnc1 [Clotrimazole, reference compound]
MIC [1]: 35 µM (≈ 12.1 µg/mL)
MIC [2]: 0.3 µM (≈ 0.103 µg/mL)
MIC [3]: 1.4 µM (≈ 0.483 µg/mL)
MIC [4]: 4.6 µM (≈ 1.59 µg/mL)
MIC [5]: 14.2 µM (≈ 4.9 µg/mL)
MIC [6]: 1 µM (≈ 0.345 µg/mL)
MIC [7]: 0.4 µM (≈ 0.138 µg/mL)
Metabolic activity of C. albicans (%) [8, 9]: 39.7%
Metabolic activity of C. albicans (%) [8, 10]: 37.6%
Metabolic activity of C. albicans (%) [8, 11]: 34.2%
Metabolic activity of C. albicans (%) [8, 12]: 28.4%
Metabolic activity of C. albicans (%) [8, 13]: 21.8%
Metabolic activity of C. albicans (%) [8, 14]: 22.2%

OC(Cn1cncn1)(Cn1cncn1)c1ccc(F)cc1F [Fluconazole, reference compound]
MIC [1]: 950 µM (≈ 291 µg/mL)
MIC [2]: 2.2 µM (≈ 0.674 µg/mL)
MIC [3]: 1.8 µM (≈ 0.551 µg/mL)
MIC [4]: 49.3 µM (≈ 15.1 µg/mL)
MIC [5]: 267 µM (≈ 81.7 µg/mL)
MIC [6]: 516 µM (≈ 158 µg/mL)
MIC [7]: 2 µM (≈ 0.613 µg/mL)
Metabolic activity of C. albicans (%) [8, 9]: 33.5%
Metabolic activity of C. albicans (%) [8, 10]: 30.8%
Metabolic activity of C. albicans (%) [8, 11]: 31.7%
Metabolic activity of C. albicans (%) [8, 12]: 30.7%
Metabolic activity of C. albicans (%) [8, 13]: 32.4%
Metabolic activity of C. albicans (%) [8, 14]: 29.2%
